Values of other authors in patent US20110293528A1, “ENEMA PREPARATIONS AND THEIR USE” (PHOTOCURE ASA, priority 2008, published 2011).

Key:
[1] = tested on: rectal adenoma or rectal cancer; conditions: 3.2 mmol per litre HAL, instillation time 30-45 minutes, rest time 30 minutes
[2] = tested on: pre-malignant conditions in the colon (polyps); conditions: enemas of 200 mg HAL in 500 ml or 1000 ml phosphate buffered saline (1.6 and 0.8 mmol per litre)

## CCCCCCOC(=O)CCC(=O)CN [5-aminolevulinic acid hexyl ester]
[1]
  result of photodynamic detection: satisfactory results
[2]
  more polyps detected by PDD than when using white light endoscopic imaging: 28%
